According to article PMC7046841, “Triterpenoids from Ainsliaea latifolia and Their Cyclooxyenase-2 (COX-2) Inhibitory Activities” (Natural Products and Bioprospecting, 2019):

Biological target: T1, human recombinant COX-2 (Homo sapiens, UniProt P35354)
T1 construct: purchased Cayman
T1 sequence (P35354 18-604): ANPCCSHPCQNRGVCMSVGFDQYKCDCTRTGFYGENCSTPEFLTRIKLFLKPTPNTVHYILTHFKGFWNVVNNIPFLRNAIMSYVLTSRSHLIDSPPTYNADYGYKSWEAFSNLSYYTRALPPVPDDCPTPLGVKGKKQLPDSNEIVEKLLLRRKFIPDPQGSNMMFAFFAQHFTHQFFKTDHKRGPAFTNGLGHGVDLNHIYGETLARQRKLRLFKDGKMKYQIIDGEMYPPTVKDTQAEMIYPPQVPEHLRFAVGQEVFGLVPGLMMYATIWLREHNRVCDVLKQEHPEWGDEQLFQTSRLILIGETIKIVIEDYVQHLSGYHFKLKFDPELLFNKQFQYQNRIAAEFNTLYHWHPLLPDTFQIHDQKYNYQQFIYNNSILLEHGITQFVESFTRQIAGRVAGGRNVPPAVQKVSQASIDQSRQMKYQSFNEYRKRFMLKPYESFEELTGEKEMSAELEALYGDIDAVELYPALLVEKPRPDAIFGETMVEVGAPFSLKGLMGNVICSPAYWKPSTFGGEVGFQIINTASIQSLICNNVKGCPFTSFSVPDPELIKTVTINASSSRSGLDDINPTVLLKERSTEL
Assay: Colorimetric COX Inhibitor Screening Assay (Cayman), COX-2 inhibitory effect
Format: biochemical
Experimental: Cayman’s Colorimetric COX Inhibitor Screening Assay provides a convenient method for human recombinant COX-2 to screen isozyme-specific inhibitors. The assay measures the peroxidase component of COXs. The peroxidase activity is assayed colorimetrically by monitoring the appearance of oxidized N′,N,N,N′-tetramethyl-p-phenylenediamine (TMPD) at 590 nm. The COX-2 assay consisted of a 200 µL reaction mixture containing 150 µL assay buffer, 10 µL Heme, 10 µL COX-2, 20 µL Colorimetric Substrate, and 10 µL test solution (1, 5, 10, 20, 80, 100 µmol·L^−1). The reactions were initiated by quickly adding 10 µL Arachidonic Acid, then incubating for 2 min at room temperature.

SMILES	IC50 [µM]
C[C@H](C/C=C/C(C)(C)O)[C@H]1CC[C@@]2(C)[C@@H]3C[C@H]4O[C@@]45[C@@H](CC[C@H](O)C5(C)C)[C@]3(C)CC[C@]12C [Compound 3, cucurbita-5β,6β-epoxy-23-ene-3β, 25-diol]	> 100
C[C@H](C/C=C/C(C)(C)O)[C@H]1CC[C@@]2(C)[C@@H]3CC=C4[C@@H](CC[C@H](O)C4(C)C)[C@]3(C)CC[C@]12C [Compound 9, cucurbita-5,23-diene-3β,25-diol]	> 100
C[C@H](CCO)[C@H]1CC[C@@]2(C)[C@@H]3CC=C4[C@@H](CC[C@H](O)C4(C)C)[C@]3(C)CC[C@]12C [Compound 6, 24,25,26,27-tetranorcucurbita-5-ene-3β,23-diol]	31 ± 2.64
CC(CC=CC(C)(C)O)C1CCC2(C)C3CCC4(C)C(C)C(=O)CCC4C3(C)CCC12C (stereo not drawn) [Compound 7, 18R-D:A-friedoeuph-20-ene-22-ol-3-one]	> 100
C[C@H](CC[C@H](O)C(C)(C)O)[C@H]1CC[C@@]2(C)[C@@H]3CC=C4[C@@H](CC[C@H](O)C4(C)C)[C@]3(C)CC[C@]12C [Compound 2, cucurbita-5-ene-3β,24S,25-triol]	18.9 ± 1.65
C[C@H](CCC(=O)O)[C@H]1CC[C@@]2(C)[C@@H]3CC=C4[C@@H](CC[C@H](O)C4(C)C)[C@]3(C)CC[C@]12C [Compound 5, 25,26,27-trinorcucurbita-5-ene-3β-ol-24-acid]	19.5 ± 1.87
C=C(C)[C@@H](O)CC[C@@H](C)[C@@H]1CC[C@]2(C)[C@H]3CC[C@@]4(C)[C@@H](CCC(=O)[C@@H]4C)[C@]3(C)CC[C@@]12C [Compound 8]	> 100
CC(C=CC(O)C(C)(C)O)C1CCC2(C)C3CC=C4C(CCC(O)C4(C)C)C3(C)CCC12C (stereo not drawn) [Compound 1, cucurbita-5, 22-diene-3β, 24S, 25-triol]	> 100
C[C@H](CCCO)[C@H]1CC[C@@]2(C)[C@@H]3CC=C4[C@@H](CC[C@H](O)C4(C)C)[C@]3(C)CC[C@]12C [Compound 4, 25,26,27-trinorcucurbita-5-ene-3β,24-diol]	3.98 ± 0.32
